Laboratory results as given in US20090149455A1, “Use of Triazolopyrimidines for Controlling Plant Diseases on Legumes” (Bayer CropScience AG, priority 2005, published 2009).

Assay: log p
Type: physicochemical
A log p of 3.11 was found for `Fc1c(F)c(F)c(-c2c(Cl)nc3ncnn3c2N2CCCC2)c(F)c1F` [Example 207] in this work.
A log p of 4.09 was found for `Fc1c(F)c(F)c(-c2c(Cl)nc3ncnn3c2N2CCCCC2C(F)(F)F)c(F)c1F` (stereo not drawn) [Example 208] in this work.
A log p of 3.29 was found for `Fc1c(F)c(F)c(-c2c(Cl)nc3ncnn3c2N2CCSCC2)c(F)c1F` [Example 209] in this work.
A log p of 3.2 was found for `Fc1ccc(-c2c(Cl)nc3ncnn3c2N2CCCC2C(F)(F)F)c(F)c1` (stereo not drawn) [Example 210] in this work.
A log p of 2.78 was found for `Fc1cccc(Cl)c1-c1c(Cl)nc2ncnn2c1N1CC=CCO1` [Example 243] in this work.
A log p of 2.58 was found for `Fc1cccc(Cl)c1-c1c(Cl)nc2ncnn2c1N1CCCC=N1` [Example 244] in this work.
A log p of 3.51 was found for `Clc1ccc(-c2c(Cl)nc3ncnn3c2N2CCCCO2)c(Cl)c1` [Example 245] in this work.
A log p of 3.12 was found for `CC1C=CCN(c2c(-c3c(F)cc(F)cc3F)c(Cl)nc3ncnn23)O1` (stereo not drawn) [Example 246] in this work.
A log p of 2.72 was found for `Clc1ccccc1-c1c(Cl)nc2ncnn2c1N1CCCC1` [Example 247] in this work.
A log p of 3.6 was found for `CC1CCCCN1c1c(-c2ccccc2Cl)c(Cl)nc2ncnn12` (stereo not drawn) [Example 248] in this work.
A log p of 2.98 was found for `Fc1ccc(-c2c(Cl)nc3ncnn3c2N2CCCCN2)c(C(F)(F)F)c1` [Example 249] in this work.
A log p of 2.5 was found for `Clc1nc2ncnn2c(N2CCCC2)c1-c1ccccc1` [Example 250] in this work.
A log p of 3.05 was found for `Clc1nc2ncnn2c(N2CCCCC2)c1-c1ccccc1` [Example 251] in this work.
A log p of 2.03 was found for `Clc1nc2ncnn2c(N2CCOCC2)c1-c1ccccc1` [Example 252] in this work.
A log p of 3.47 was found for `CC1CCN(c2c(-c3ccccc3)c(Cl)nc3ncnn23)CC1` [Example 253] in this work.
A log p of 2.78 was found for `Clc1ccc(-c2c(Cl)nc3ncnn3c2N2CCOCC2)c(Cl)c1` [Example 254] in this work.
A log p of 3.1 was found for `CC1CCCN1c1c(-c2ccccc2Cl)c(Cl)nc2ncnn12` (stereo not drawn) [Example 255] in this work.
A log p of 3.71 was found for `CC1CCN(c2c(-c3ccccc3Cl)c(Cl)nc3ncnn23)CC1` [Example 256] in this work.
A log p of 3.26 was found for `Clc1ccccc1-c1c(Cl)nc2ncnn2c1N1CCCCC1` [Example 257] in this work.
A log p of 2.87 was found for `CC1CCCN1c1c(-c2ccccc2)c(Cl)nc2ncnn12` (stereo not drawn) [Example 258] in this work.
A log p of 3.35 was found for `CC1CCCCN1c1c(-c2ccccc2)c(Cl)nc2ncnn12` (stereo not drawn) [Example 259] in this work.
A log p of 2.29 was found for `Fc1cccc(Cl)c1-c1c(Cl)nc2ncnn2c1N1CCCN1` [Example 260] in this work.
A log p of 2.39 was found for `Fc1ccc(-c2c(Cl)nc3ncnn3c2N2CCCN2)c(Cl)c1` [Example 261] in this work.
A log p of 2.32 was found for `Fc1cc(F)c(-c2c(Cl)nc3ncnn3c2N2CCCN2)c(F)c1` [Example 262] in this work.
A log p of 2.2 was found for `Clc1ccccc1-c1c(Cl)nc2ncnn2c1N1CCCN1` [Example 263] in this work.
A log p of 3.32 was found for `CC1CNN(c2c(-c3c(F)cccc3Cl)c(Cl)nc3ncnn23)CC1C` (stereo not drawn) [Example 264] in this work.
A log p of 3.22 was found for `CC1CCN(c2c(-c3ccc(F)cc3Cl)c(Cl)nc3ncnn23)NC1` (stereo not drawn) [Example 265] in this work.
A log p of 3.43 was found for `CC1CNN(c2c(-c3ccc(F)cc3Cl)c(Cl)nc3ncnn23)CC1C` (stereo not drawn) [Example 266] in this work.
A log p of 3.01 was found for `CC1CCN(c2c(-c3c(F)cccc3Cl)c(Cl)nc3ncnn23)NC1` (stereo not drawn) [Example 267] in this work.
A log p of 2.87 was found for `Cc1cc(C)n(-c2c(-c3c(F)cccc3Cl)c(Cl)nc3ncnn23)n1` [Example 268] in this work.
A log p of 2.94 was found for `Cc1cc(C)n(-c2c(-c3ccc(F)cc3Cl)c(Cl)nc3ncnn23)n1` [Example 269] in this work.
A log p of 3.35 was found for `CC1CNN(c2c(-c3c(F)cc(F)cc3F)c(Cl)nc3ncnn23)CC1C` (stereo not drawn) [Example 270] in this work.
A log p of 3 was found for `CC1CCN(c2c(-c3ccccc3Cl)c(Cl)nc3ncnn23)NC1` (stereo not drawn) [Example 271] in this work.
A log p of 2.79 was found for `CC1C=NN(c2c(-c3ccccc3Cl)c(Cl)nc3ncnn23)CC1` (stereo not drawn) [Example 272] in this work.
A log p of 2.85 was found for `CC1C=NN(c2c(-c3c(F)cc(F)cc3F)c(Cl)nc3ncnn23)CC1` (stereo not drawn) [Example 273] in this work.
A log p of 3.05 was found for `CC1CCN(c2c(-c3c(F)cc(F)cc3F)c(Cl)nc3ncnn23)NC1` (stereo not drawn) [Example 274] in this work.
A log p of 3.15 was found for `CC1C=NN(c2c(-c3c(F)cccc3Cl)c(Cl)nc3ncnn23)CC1C` (stereo not drawn) [Example 275] in this work.
A log p of 3.14 was found for `CC1C=NN(c2c(-c3c(F)cc(F)cc3F)c(Cl)nc3ncnn23)CC1C` (stereo not drawn) [Example 276] in this work.
A log p of 3.1 was found for `CC1C=NN(c2c(-c3ccccc3Cl)c(Cl)nc3ncnn23)CC1C` (stereo not drawn) [Example 277] in this work.
A log p of 3.3 was found for `CC1CNN(c2c(-c3ccccc3Cl)c(Cl)nc3ncnn23)CC1C` (stereo not drawn) [Example 278] in this work.
A log p of 3.8 was found for `CC1CCN(c2c(-c3ccccc3C(F)(F)F)c(Cl)nc3ncnn23)CC1` [Example 279] in this work.
A log p of 3.37 was found for `CC1CCN(c2c(-c3c(F)cccc3Cl)c(C#N)nc3ncnn23)CC1` [Example 280] in this work.
